Consider 2 compounds from publication PMC7288058, “Modulating the Properties of Fe(III) Macrocyclic MRI Contrast Agents by Appending Sulfonate or Hydroxyl Groups” (Molecules, 2020).

Each structure is given as a SMILES string. “And” between values parts separate entries of the source, which are not always exact repeats. Equal values may be shown once. A value given as a limit tells only on which side of the number the result lay.

Series [1] is described as follows: Aqueous solubility (observations). Type of series: physicochemical. The note with it: for aqueous solubility: words.
The subject of series [2] is Balb/c mice. Put plainly: Dynamic T1-weighted MRI in mice after tail vein injection (4.7 T). The series is classed as in vivo. The source says: The two new Fe(III) complexes, Fe(L1)(OH2) and […], and the Gd(III) agent, Gd(DOTA), were studied in Balb/c mice on a small animal 4.7-T MRI scanner upon tail vein injection of the agent (Figure S24, Supplementary Materials). […] Biodistribution and pharmacokinetic clearance of the complexes in mice were monitored by using dynamic MRI.
In vivo imaging studies with the Fe(III) complexes were studied on at 4.7 T Bruker preclinical MRI in mice (BABC/cJ, Jackson Laboratory) in accordance with approved Institutional Animal Care and Use Committee (IACUC) protocols. The samples with a concentration of 0.050, 0.100, and 0.200 mmol [Fe]/kg. The Fe(III) complex stock solutions were adjusted to pH 7.2 by addition of meglumine and were injected intravenously via tail vein. MR data were recorded continuously for up to 1 h. Distribution studies and clearance kinetics were studied by using MR data acquired over several time points for up to 1 h, and additionally at 4 h and 24 h. For comparison, The Food and Drug Administration (FDA)-approved MRI contrast agent gadopentetate dimeglumine (Gd(DTPA), Magnevist®) and gadoterate meglumine (Gd(DOTA), Dotarem®) were injected at 50.0 μmol [Gd]/kg into separate group of mice and imaged as above.

Series [3] is described as follows: 1-octanol/water partition coefficient (log P) by ICP-MS. Type of series: physicochemical. The note with it: 20 mM HEPES pH 7.4, 100 mM NaCl.
Method: To compare the lipophilicity of the complexes, the 1-octanol/water partition coefficients (log P) were determined.
Fe(III) complex solutions (0.500 mM) were prepared in 1.00 mL of H2O with 20.0 mM HEPES buffer (pH 7.4) and 100.0 mM NaCl. 0.500 mL of Fe(III) complex solution and 0.500 mL of 1-octanol was prepared. The mixture was shaken for 24 h, then centrifuged at 13,000 rpm for 1 min. Then, the solution was allowed to stand for 1 h. Iron concentration in the aqueous layer before and after mixing with 1-octanol was determined by ICP-MS. […] (3) logP=log(Co/Cw).
Series [4] can be described thus: T1/T2 relaxivity measurements (4.7 T MRI scanner, 9.4 T NMR). Conditions: pH 7.4, 37 °C; for r1 4.7 T / r2 4.7 T / r1 9.4 T: buffer. The procedure:
The r1 and r2 relaxivity of the three complexes in buffer and HSA on a 4.7-T MRI scanner and 9.4-T NMR spectrometer are shown in Table 2. In buffer, the r1 relaxivity values of Fe(L1)(OH2) and Fe(L3)(OH2) are similar at 2.0 mM^−1∙s^−1 and 2.2. mM^−1∙s^−1, respectively, at 4.7 T. Both complexes have higher relaxivity than Fe(EDTA) (1.4 mM^−1∙s^−1 at 4.7 T) which has a single exchangeable inner-sphere water molecule. The r1 relaxivity value of the […] complex in buffer is two-fold less (1.0 mM^−1∙s^−1) than that of Fe(L1)(OH2) or […] at 4.7 T. In HSA-containing solutions, the r1 relaxivity values of Fe(L1)(OH2), Fe(L2) and Fe(L3)(OH2) change slightly, consistent with weak binding to this blood protein. […] As expected, increasing the field strength from 4.7 T to 9.4 T caused a decrease in the r1 relaxivity value of Gd(DTPA) to 2.5 mM^−1∙s^−1 from 3.1 mM^−1∙s^−1 [19]. […] This peculiar feature of Fe(III) complexes was predicted from simulation of NMRD profiles.
Relaxivity of the complexes was determined at 4.7 T (small animal MRI) and 9.4 T (400 MHz NMR). Both T1 and T2 experiments were performed at 37 °C for the concentration range of 50.0 µM to 0.400 mM Fe(III) complex. The solutions contained 0.100 M NaCl and HEPES buffer (pH 7.4, 20 mM). An inversion recovery True FISP acquisition was used to measure T1 relaxation rate constants. T2 relaxation rates were measured by using multi-echo, Carr–Purcell–Meiboom–Gill spin-echo sequence with a fixed TR of 3000 ms and TE times ranging from 20–1200 ms. The T1 and T2 relaxivity values were calculated by using linear regression fitting of 1/T1 (s^−1) and 1/T2 (s^−1) versus concentration (mM) in Microsoft Excel.

The nature of series [5]: Kinetic inertness / dissociation monitored by UV-Vis absorbance. The series is classed as physicochemical. Conditions: 100 mM HCl, 37 °C. How it is done: The complexes have electronic absorbance bands at 325 nm and 330 nm with extinction coefficients ranging from 1570 M^−1∙cm^−1 to 3800 M^−1∙cm^−1 (Figures S16–S21, Table S2, Supplementary Materials). These absorbance peaks were monitored to study the dissociation of the complexes in 100 mM HCl acid solution, or in solutions containing 25 mM hydrogen carbonate and 0.40 mM hydrogen phosphate at 37 °C. […] In acidic solution (100 mM HCl), the dissociation of Fe(L1)(OH2) was estimated as 18.1% over 24 h and 53.6% over 72 h based on absorbance changes. For comparison, the dissociation of the Fe(L2) complex in acidic solution (100 mM HCl) was 7.9% over 48 h, and the dissociation of Fe(L3)(H2O) was 14% over 24 h and 38% over 72 h.
Absorbance of Fe(III) complexes was measured from 200–800 nm over a period of 48 and 72 h. A Peltier temperature controller was used to keep the temperature at 37 °C. The sample solutions contained 0.200 mM Fe(III) complex. Solutions for kinetic inertness experiments contained 25.0 mM NaHCO3, […] Na2HPO4, and 10.0 mM HEPES buffer (pH 7.4). Acidic solutions for the kinetic inertness experiments contained 0.10 M HCl. For each of these experiments, extinction coefficients were determined by using by using the Beer–Lambert law as given in Table S2 (Supplementary Materials).

Series [6] is described as follows: pH-potentiometric titrations of the intact Fe(III) complexes. The series is classed as physicochemical. Conditions: potentiometric titration, 25 °C, 0.10 M NaCl, 1–2 mM meglumine.
From the text: The pH-potentiometric titrations of the intact Fe(III) complexes were studied to determine the equilibrium constants for deprotonation of ligand groups such as the hydroxyl pendants or water ligand. […] For Fe(L1)(OH2) and Fe(L3)(OH2), either an alcohol pendant group or water ligand might ionize but, for Fe(L2), we only consider alcohol pendant groups. […] Ionization of the water ligand at near neutral pH cannot be ruled out, but is not considered to be likely based on prior studies [19]. […] The group that produces this ionization is not likely to be a bound water or hydroxyl group given that the coordination sphere is very similar to that of Fe(L3)(OH2). […] A weak hydrogen bonding interaction to a hydroxyl pendent or bound water might produce such an environment.
All solutions were prepared by using carbonate-free water.
Fe(L1)(OH2): The solution contained 0.527 mM Fe(III) complex added as the chloride salt, 1.00 mM meglumine, 0.100 M NaCl, and 3.72 mM HCl to decrease the pH of the solution to pH 3 in total volume of 20.00 mL. The solution was titrated with a 98.83 mM NaOH solution. Then, 5.00 µL aliquots of the NaOH solution were added over 60 s with an interval of 300 s using a Nexus 3000 High Flow Syringe Pump from Chemyx Inc (Stafford, TX, USA) equipped with a 10-mL Hamilton gastight syringe.
Fe(L2): The solution contained 0.75 mM Fe(III) complex added as the chloride salt, 2.00 mM meglumine, 0.100 M NaCl, and 6.00 mM HCl to decrease the pH of the solution to pH 3 in total volume of 25.00 mL. The solution was titrated with a 94.86 mM NaOH solution. Then, 5.00 µL aliquots of the NaOH solution were added over 60 s with an interval of 300 s using a Nexus 3000 High Flow Syringe Pump from Chemyx Inc (Stafford, TX) equipped with a 10-mL Hamilton gastight syringe.
In all fits of the data, meglumime was used as a third reagent, and the equilibrium equation corresponding to its ionization was added to the model data fit as determined from separate titrations. The titration was completed under Ar(g) at 25 °C. The titrations were monitored from pH 3 to pH 11. Equilibrium constants for all complexes were determined by fitting the data using [sequence] 2013 Version 6.0.1. Speciation diagrams were plotted by utilizing HySS Version 4.0.31.

With `C[C@H]([O-])CN1CCN(C[C@H](C)O)CCN(C[C@H](C)O)CC1.[Fe+3]` [Fe(L2)], the solubility in series [1] (pH 6–7, concentration needed for 17O-NMR) is < 10 mM. Besides, in series [1], the aqueous solubility result is listed as “moderate solubility”. Besides, in series [2] (healthy mouse, 0.05 mmol/kg, kidneys/blood, up to 45 min), the “T1-weighted contrast enhancement compared with other agents” value was “slightly more enhanced contrast in kidneys and blood than Fe(L1)(OH2) or the Gd(III) complexes”. Also, the “Log P” value in series [3] is −1.60 ± 0.1. Also, in series [4], the “r1 4.7 T” value was 0.97 ± 0.12 mM⁻¹ s⁻¹, the “r2 4.7 T” value turned out to be 1.8 ± 0.47 mM⁻¹ s⁻¹, the “r1 9.4 T” value was determined as 1.4 ± 0.08 mM⁻¹ s⁻¹ and the “r1 in HSA 4.7 T” value was 1.2 ± 0.22 mM⁻¹ s⁻¹. For the same compound, the “r2 in HSA 4.7 T” value in series [4] is 2.3 ± 1.1 mM⁻¹ s⁻¹. The “dissociation in acidic solution” value in series [5] (over 48 h) is given as 7.9%. Also, in series [6], the “Log K1 (pKa2)” value amounted to 11.78 ± 0.11 and the “Log K2 (pKa1)” value is 6.57 ± 0.05.
For the compound `C[C@H]([O-])CN1CCN(CCCS(=O)(=O)[O-])CCN(C[C@H](C)O)CC1.O.[Fe+3]` [Fe(L1)(OH2)], the aqueous solubility result in series [1] is on record as “excellent aqueous solubility”. Also, the “kidney contrast enhancement in T1-weighted images” value in series [2] (0.20 mmol/kg, 5 min post-injection) was “Enhancement of kidney contrast was observed”. In series [2] (Balb/c mice, dynamic MRI), the clearance pathway result was “cleared predominately by the renal system”. Besides, the tolerability in mice result in series [2] (mouse, in vivo) is reported as “tolerated well”. Besides, the “Log P” value in series [3] is on record as −1.67. Also, in series [4], the “r1 4.7 T” value is 2.0 mM⁻¹ s⁻¹ and 2.0 ± 0.19 mM⁻¹ s⁻¹; the “r2 4.7 T” value turned out to be 6.1 ± 0.77 mM⁻¹ s⁻¹; the “r1 9.4 T” value stood at 2.0 ± 0.2 mM⁻¹ s⁻¹; the “r1 in HSA 4.7 T” value came out at 2.5 ± 0.63 mM⁻¹ s⁻¹. Moreover, in series [4], the “r2 in HSA 4.7 T” value was 5.5 ± 0.98 mM⁻¹ s⁻¹. Moreover, the “dissociation in acidic solution” value in series [5] (over 24 h, estimated from absorbance changes) is listed as 18.1%. Also, the “dissociation in acidic solution” value in series [5] (over 72 h, estimated from absorbance changes) is 53.6%. In series [6], the “Log K1 (pKa2)” value worked out at 7.55 ± 0.08 and the “Log K2 (pKa1)” value is 3.39 ± 0.17.
